The values that follow come from US8735388B2, “Heterocyclic compounds with affinity to muscarinic receptors” (Abbvie B. V. A., priority 2007, dated 2014).

SMILES strings stand for the structures. Like-named read-outs stand apart in the source and are kept apart here.

For experiment [1], the target named is T1, Muscarine M2 (GPCR-A-MA-ACH M2) (Homo sapiens, UniProt P08172).
T1 construct: expressed in transfected cells; host or cells: CHO cells
T1 sequence (P08172 1-466): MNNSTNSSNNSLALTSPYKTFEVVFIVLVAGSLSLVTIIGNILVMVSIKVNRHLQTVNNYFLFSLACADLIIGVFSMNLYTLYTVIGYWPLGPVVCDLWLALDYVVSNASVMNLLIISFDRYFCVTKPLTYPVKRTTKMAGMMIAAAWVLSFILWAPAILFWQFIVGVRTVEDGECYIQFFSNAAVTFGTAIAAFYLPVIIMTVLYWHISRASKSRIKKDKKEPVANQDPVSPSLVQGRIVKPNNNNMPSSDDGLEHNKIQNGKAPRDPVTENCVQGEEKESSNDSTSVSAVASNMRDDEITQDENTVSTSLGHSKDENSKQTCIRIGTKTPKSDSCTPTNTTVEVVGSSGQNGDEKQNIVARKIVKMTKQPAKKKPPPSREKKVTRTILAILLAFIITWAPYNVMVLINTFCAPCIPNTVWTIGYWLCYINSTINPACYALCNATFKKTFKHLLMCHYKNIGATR
As to the kind of experiment: Muscarine M2 receptor binding.

The target of experiment [2] is T2, Muscarine M1 (GPCR-A-MA-ACH M1) (Homo sapiens, UniProt P11229).
T2 construct: expressed in transfected cells; host or cells: CHO cells
T2 sequence (P11229 1-460): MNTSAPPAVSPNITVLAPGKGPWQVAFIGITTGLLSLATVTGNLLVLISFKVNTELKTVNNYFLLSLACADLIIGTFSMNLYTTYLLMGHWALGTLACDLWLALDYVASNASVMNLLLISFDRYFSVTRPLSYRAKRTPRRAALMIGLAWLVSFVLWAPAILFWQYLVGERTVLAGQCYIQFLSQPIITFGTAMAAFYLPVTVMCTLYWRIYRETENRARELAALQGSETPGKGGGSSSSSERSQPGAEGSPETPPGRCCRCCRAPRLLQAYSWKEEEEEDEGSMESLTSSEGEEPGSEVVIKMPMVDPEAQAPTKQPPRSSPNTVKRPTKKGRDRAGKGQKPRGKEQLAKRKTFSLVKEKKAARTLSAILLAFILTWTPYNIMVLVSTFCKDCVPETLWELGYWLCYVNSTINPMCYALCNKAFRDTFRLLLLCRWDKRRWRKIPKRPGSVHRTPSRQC
Nature of the experiment: Muscarine M1 cell-based functional assay (CHO cells, Ca2+ - FLIPR Fluorimetry). Particulars: read-out: Cell funct. Musc. M1 Agonism pEC50 (converted).

Experiment [3] deals with T2, Muscarine M1 (GPCR-A-MA-ACH M1). As to the kind of experiment: Muscarine M1 receptor binding, 3H-Pirenzepine. As to conditions: human M1, CHO cells, ligand 2 nM, 60 min/22° C., read-out: RB Musc. M1 3H-Pirenzepine pKi (converted). As for the experimental part: (§1) Compounds were dissolved in DMSO (10 mM) and diluted in assay buffer to test concentration. Prime testing was at 10 μM; for actives (PI, percent inhibition with respect to total and non-specific binding >40%) testing was continued at lower concentrations in 10-fold dilutions: 1 μM, 0.1 μM, etc.
(§2) Following incubation of compound with the receptor preparation (from ‘Tissue’) and the Ligand at the time and temperature indicated, the receptor preparations were rapidly filtered under vacuum through glass fibre filters; the filters were washed extensively with an ice-cold buffer using a harvester. Bound radioactivity was measured by scintillation counting using a liquid scintillation cocktail.
(§3) Results were expressed as percentage of total Ligand binding and that of Non Specific Binding, per concentration of Compound tested (duplicates); from the concentration—displacement curves IC50 values were determined by non-linear regression analysis using Hill equation curve fitting. The inhibition constants (Ki) were calculated from the Cheng-Prushoff equation Ki=IC50/(1+L/Kd), where L is the concentration of radioligand in the assay, and Kd the affinity of the radioligand for the receptor. Results were expressed as pKi's, means±SD of at least 2 separate experiments; i.e. outliers (outside+/−1 std of mean) and discrepancies were excluded.

Experiment [4] has as its target T3, Muscarine M3 (GPCR-A-MA-ACH M3) (Homo sapiens, UniProt P20309).
T3 construct: expressed in transfected cells; host or cells: CHO cells
As to the kind of experiment: Muscarine M3 receptor binding.

Experiment [5] has as its target T4, Muscarine M4 (GPCR-A-MA-ACH M4) (Homo sapiens, UniProt P08173).
T4 construct: expressed in transfected cells; host or cells: CHO cells
T4 sequence (P08173 1-479): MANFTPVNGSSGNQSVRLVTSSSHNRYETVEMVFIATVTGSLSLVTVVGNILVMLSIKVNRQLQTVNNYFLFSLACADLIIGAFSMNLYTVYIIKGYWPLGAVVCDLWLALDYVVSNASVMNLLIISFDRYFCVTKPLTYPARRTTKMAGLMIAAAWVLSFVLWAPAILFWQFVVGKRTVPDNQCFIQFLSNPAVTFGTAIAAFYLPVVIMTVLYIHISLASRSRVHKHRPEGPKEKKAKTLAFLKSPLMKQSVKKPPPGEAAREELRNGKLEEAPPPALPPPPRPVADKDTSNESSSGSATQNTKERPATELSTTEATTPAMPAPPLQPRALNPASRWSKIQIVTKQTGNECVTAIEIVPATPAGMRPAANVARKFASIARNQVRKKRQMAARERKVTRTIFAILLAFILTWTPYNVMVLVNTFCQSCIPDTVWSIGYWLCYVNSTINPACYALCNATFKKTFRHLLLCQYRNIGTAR
Nature of the experiment: Muscarine M4 receptor binding, 3H-4DAMP. Particulars: human M4, CHO cells, ligand 0.2 nM, 60 min/22° C., read-out: RB Musc. M4 3H-DAMP pKi (converted). The protocol: as §1, §2, §3

For experiment [6], the target named is T4, Muscarine M4 (GPCR-A-MA-ACH M4). Nature of the experiment: Muscarine M4 cell-based functional assay (CHO cells, Ca2+ - Aequorin luminescence). As for the experimental part: Compounds were dissolved in DMSO (10 mM) and diluted in assay buffer to test concentration. Prime testing was at 1 μM; for actives in antagonist mode (PI, percent inhibition with respect to reference agonist and blank>30%) as well as actives in agonist mode (PS, percent stimulation with respect to reference agonist and blank>30%) testing was continued at lower concentrations in 10-fold dilutions: 0.1 μM, 0.01 μM, etc.
Cells were incubated with compound and the response indicated was measured.
The results are expressed as a percent of reference agonist values and blanks in the presence of the test compound, percent stimulation for agonist mode; for the antagonist mode (test compound in the presence of reference agonist) as percent inhibition. The EC50 values (concentration causing a half-maximal stimulation of control values), IC50 values (concentration causing a half-maximal inhibition of control values) were determined by non-linear regression analysis of the concentration-response curves using Hill equation curve fitting.

The target is the same in experiment [7]. Nature of the experiment: Muscarine M4 receptor binding, 3H-Oxotremorine. As for the experimental part: as §1, §2, §3
Experiment [8] deals with T5, Muscarine M3 (GPCR-A-MA-ACH M3) (Cavia porcellus, UniProt H0W1Z3).
T5 construct: from tissue; host or cells: guinea pig ileum
T5 sequence (H0W1Z3 1-590): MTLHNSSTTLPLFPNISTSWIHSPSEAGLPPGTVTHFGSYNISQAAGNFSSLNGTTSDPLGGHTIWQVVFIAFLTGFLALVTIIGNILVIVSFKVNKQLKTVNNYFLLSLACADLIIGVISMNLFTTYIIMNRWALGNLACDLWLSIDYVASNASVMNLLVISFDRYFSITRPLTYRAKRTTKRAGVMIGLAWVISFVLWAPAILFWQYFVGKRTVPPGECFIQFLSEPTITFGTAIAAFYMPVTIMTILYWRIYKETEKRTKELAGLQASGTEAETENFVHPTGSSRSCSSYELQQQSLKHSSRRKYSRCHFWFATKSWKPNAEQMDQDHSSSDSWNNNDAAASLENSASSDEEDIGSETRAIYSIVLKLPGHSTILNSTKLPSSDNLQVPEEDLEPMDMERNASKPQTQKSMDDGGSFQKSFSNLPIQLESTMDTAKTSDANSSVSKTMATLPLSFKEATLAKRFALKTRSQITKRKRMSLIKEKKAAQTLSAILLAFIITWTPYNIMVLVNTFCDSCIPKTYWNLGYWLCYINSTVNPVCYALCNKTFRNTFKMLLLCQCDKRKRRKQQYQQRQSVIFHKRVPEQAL
As to the kind of experiment: Muscarine M3 functional assay, isolated organ (ileum), agonist and antagonist mode. Set-up: species or system Guinea Pig. As to conditions: for EC50: read-out: Cell funct. Musc. M3 Agonism pEC50 (converted).

Experiment [9] deals with T6, Muscarine M2 (GPCR-A-MA-ACH M2) (Cavia porcellus, UniProt H0VRN8).
T6 construct: from tissue; host or cells: guinea pig left atrium (electrically paced)
T6 sequence (H0VRN8 1-466): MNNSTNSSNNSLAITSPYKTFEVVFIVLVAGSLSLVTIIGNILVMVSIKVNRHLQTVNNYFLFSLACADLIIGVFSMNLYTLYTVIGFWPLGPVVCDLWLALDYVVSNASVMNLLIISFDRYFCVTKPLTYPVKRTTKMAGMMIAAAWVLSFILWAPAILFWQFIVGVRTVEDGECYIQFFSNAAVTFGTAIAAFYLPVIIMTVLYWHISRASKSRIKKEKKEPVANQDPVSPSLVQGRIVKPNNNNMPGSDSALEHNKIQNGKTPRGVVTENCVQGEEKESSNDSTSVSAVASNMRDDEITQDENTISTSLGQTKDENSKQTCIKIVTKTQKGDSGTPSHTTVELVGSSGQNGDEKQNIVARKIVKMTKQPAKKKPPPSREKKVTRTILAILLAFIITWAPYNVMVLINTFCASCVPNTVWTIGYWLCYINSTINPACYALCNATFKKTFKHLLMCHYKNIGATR
Nature of the experiment: Muscarine M2 functional assay, isolated organ (left atrium, electrically paced), agonist and antagonist mode. As to conditions: for EC50: read-out: Cell funct. Musc. M2 Agonism pEC50 (converted). Also noted: species or system Guinea Pig.

The mark [10] stands for this setting: human M1, CHO cells, agonist mode, reference agonist acetylcholine.
The mark [11] stands for this setting: human M4, CHO cells, agonist mode, reference agonist oxotremorine, read-out: Cell funct. Musc. M4 Agonism pEC50 (converted).
Where [12] appears, read: human M4, CHO cells, receptor binding, ligand 6 nM, 30 min/25° C., read-out: RB Musc. M4 3H-Oxotremorine pKi (converted).

T3 sequence (P20309 whole entry): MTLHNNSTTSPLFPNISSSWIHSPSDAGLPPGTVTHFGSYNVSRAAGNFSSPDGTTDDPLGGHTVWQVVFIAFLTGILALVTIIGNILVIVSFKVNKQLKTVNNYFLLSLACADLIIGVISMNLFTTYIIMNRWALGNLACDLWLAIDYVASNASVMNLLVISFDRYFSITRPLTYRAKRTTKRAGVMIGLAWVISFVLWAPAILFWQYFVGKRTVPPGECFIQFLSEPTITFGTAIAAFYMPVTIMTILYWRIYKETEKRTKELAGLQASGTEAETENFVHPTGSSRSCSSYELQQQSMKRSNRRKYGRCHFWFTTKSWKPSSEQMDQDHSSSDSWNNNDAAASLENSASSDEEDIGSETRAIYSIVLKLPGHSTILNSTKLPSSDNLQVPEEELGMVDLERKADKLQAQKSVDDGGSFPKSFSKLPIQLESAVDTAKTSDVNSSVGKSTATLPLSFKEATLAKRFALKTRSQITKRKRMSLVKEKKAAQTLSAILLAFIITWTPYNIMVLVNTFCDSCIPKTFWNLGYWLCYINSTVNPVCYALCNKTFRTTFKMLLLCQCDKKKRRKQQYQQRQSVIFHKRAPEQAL

For the compound `CN1CCC=C(c2n[nH]cc2SCCCCCSc2c[nH]nc2C2=CCCN(C)C2)C1` [Compound 22C], the Ki was 398 nM in experiment [1] (human M2, CHO cells, receptor binding); 251 nM in [3]; 31.6 nM in [4] (human M3, CHO cells, receptor binding); 63.1 nM in experiment [5]; 158 nM in [7] (setting [12]). In addition, the EC50 in [2] (setting [10]) is greater than 1000 nM; in [6] (setting [11]), greater than 10000 nM; in experiment [8], greater than 1000 nM; in experiment [9] it was greater than 1000 nM. The Kb in experiment [8] and in experiment [9] (read-out: Cell funct. Musc. M2 Antagonism pA2 (converted)) was greater than 1000 nM in each case.

With `CCSc1c[nH]nc1C1CN2CCC1CC2` (stereo not drawn) [Compound 49D, 3-(4-Ethylsulfanyl-1H-pyrazol-3-yl)-1-azabicyclo[2.2.2]octane], the figures for the EC50 in experiment [2] and in experiment [6] were 39.8 nM and 158 nM, respectively. Further, the Ki was 794 nM in [3], 100 nM in experiment [5] and 126 nM in [7].

Consider `FC(F)=CCCSc1c[nH]nc1C1CN2CCC1CC2` (stereo not drawn) [Compound 49I, 3-[4-(4,4-Difluoro-but-3-enylsulfanyl)-1H-pyrazol-3-yl]-1-azabicyclo[2.2.2]octane], for which the EC50 was 3.16 nM in experiment [2] and 20 nM in [6]. Also, the Ki in [3] was 316 nM; in experiment [5] it was 63.1 nM; in experiment [7], 12.6 nM.

Take `CCCCOc1c[nH]nc1C1CN2CCC1CC2` (stereo not drawn) [Compound 52A, 3-(4-Butoxy-1H-pyrazol-3-yl)-1-azabicyclo[2.2.2]octane]: the Ki in [1] was 3980 nM; in experiment [3] it was 794 nM; in [4], 794 nM; in experiment [5], 251 nM; in experiment [7], 126 nM. In addition, the EC50 in [2] is 20 nM; in [8] it was greater than 1000 nM; in experiment [9], greater than 1000 nM. Besides, the Kb in [8] and in experiment [9] was greater than 1000 nM throughout.

`CCCCCOc1c[nH]nc1C1CN2CCC1CC2` (stereo not drawn) [Compound 52C, 3-(4-Pentyloxy-1H-pyrazol-3-yl)-1-azabicyclo[2.2.2]octane]: the Ki in [1] was 2510 nM; in experiment [3], 1000 nM; in experiment [4], 631 nM; in experiment [5] it was 251 nM; in experiment [7], 63.1 nM. In addition, the figures for the EC50 in experiment [2], in [8] and in experiment [9] were 12.6 nM, greater than 1000 nM and greater than 1000 nM, respectively. The Kb in [8] and in experiment [9] was greater than 1000 nM in each case.

Take `Ic1c[nH]nc1[C@@H]1CN2CCC[C@H]1C2` [Compound 59, endo-6-(4-iodo-1H-pyrazol-3-yl)-1-azabicyclo[3.2.1]octane]: the EC50 in experiment [2] is 79.4 nM; in experiment [6], greater than 10000 nM. The figures for the Ki in experiment [3], in experiment [5] and in experiment [7] were 1000 nM, 100 nM and 200 nM, respectively.

On to `CCCCC=Cc1conc1C1=CCCN(C)C1` [Compound 68A, 3-(4-Hex-1-enyl-isoxazol-3-yl)-1,2,5,6-tetrahydro-1-methylpyridine], for which the EC50 in experiment [2] (setting [10]) was 200 nM; in [6] (setting [11]), 794 nM. For the same compound, the Ki is 1580 nM in [3], 251 nM in experiment [5] and 631 nM in experiment [7] (setting [12]).

As for `CCCCCCC=Cc1conc1C1=CCCN(C)C1` [Compound 68B, 3-(4-Oct-1-enyl-isoxazol-3-yl)-1,2,5,6-tetrahydro-1-methylpyridine], the EC50 in [2] (setting [10]) and in experiment [6] (setting [11]) was 794 nM throughout. Besides, the Ki in experiment [3] was 5010 nM; in experiment [5], 1000 nM; in experiment [7] (setting [12]), 794 nM.

Regarding `CCCCCC#Cc1conc1C1=CCCN(C)C1` [Compound 70A, 3-(4-Hept-1-ynyl-isoxazol-3-yl)-1,2,5,6-tetrahydro-1-methylpyridine], the EC50 in experiment [2] (setting [10]) was 251 nM; in experiment [6] (setting [11]), 631 nM. The Ki is 1000 nM in [3], 200 nM in experiment [5] and 251 nM in experiment [7] (setting [12]).

For `COc1ccccc1CNCCCCCCNCCCCCCCCNCCCCCCNCc1ccccc1OC` [Methoctramine, reference compound], the Kb in [9] was 12.6 nM.

As for `CN1CCN(CC(=O)N2c3ccccc3C(=O)Nc3cccnc32)CC1` [Pirenzepine, reference compound], the Kb in [8] is 1.26 nM.
